Laboratory results taken from patent US20170334899A1, “AMINO-SUBSTITUTED ISOTHIAZOLES” (Bayer Pharma Aktiengesellschaft, priority 2014, published 2017).

Assays:
[1] = tested on: HeLa; experiment: Proliferation assay (crystal violet), HeLa; assay type: cell-based; settings: Homo sapiens, HeLa, 96 h, HeLa cells; 4 days incubation; crystal violet staining; read-out: IC50 inhibition of proliferation, HeLa
Outline: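 Cells plated at 1000-5000/well with 10% FCS, treated after 24 h with compound at 0.001-10 μM (0.5% DMSO) for 4 days. Glutaraldehyde-fixed, crystal violet-stained, A595 normalised to zero-point plate (0%) and untreated cells (100%); IC50 by 4-parameter fit.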

[2] = target: T1, catalytic domain of human Bub1 (amino acids 704-1085) (Homo sapiens, UniProt O43683); experiment: Bub1 kinase assay (TR-FRET); assay type: biochemical; settings: 10 μM ATP, avg, read-out: Bub1 avg (IC50 [mol/l])
T1 construct: catalytic domain of human Bub1 (amino acids 704-1085); His6 (N); made in house; host or cells: insect cells (Hi5)
T1 sequence (O43683 704-1085): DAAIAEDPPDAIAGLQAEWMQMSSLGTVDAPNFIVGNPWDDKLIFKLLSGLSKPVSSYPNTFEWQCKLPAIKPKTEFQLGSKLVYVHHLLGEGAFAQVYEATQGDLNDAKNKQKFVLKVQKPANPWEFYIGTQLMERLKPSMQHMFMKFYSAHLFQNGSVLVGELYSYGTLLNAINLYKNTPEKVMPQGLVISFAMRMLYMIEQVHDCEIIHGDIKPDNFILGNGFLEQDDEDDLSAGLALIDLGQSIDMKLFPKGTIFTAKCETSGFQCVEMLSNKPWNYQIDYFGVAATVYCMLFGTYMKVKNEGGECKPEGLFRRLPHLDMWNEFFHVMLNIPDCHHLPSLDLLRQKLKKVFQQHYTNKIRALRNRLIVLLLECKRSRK
Outline: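 Readout is the 665/620 nm TR-FRET ratio from anti-phosphoserine antibody, Eu-labelled anti-mouse IgG and streptavidin-XL665, scaled between no-enzyme and uninhibited controls. Reaction: 1 μM biotinylated peptide, 10 μM ATP, 60 min, 22 °C, after 15 min compound preincubation with His6-Bub1 (704-1085, insect-expressed, ~200 ng/ml).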

Compound	IC50 [1] [nM]	IC50 [2] [nM]
Cc1nsc(Nc2cnc(C(F)(F)F)cn2)c1C(=O)Nc1ccc(OCCCNCCC(F)(F)F)nc1 [Example 294, 3-methyl-5-{[5-(trifluoromethyl)pyrazin-2-yl]amino}-N-(6-{3-[(3,3,3-trifluoropropyl)amino]propoxy}pyridin-3-yl)-1,2-thiazole-4-carboxamide]	1300	> 20000
Cc1nsc(Nc2cnc(C(F)(F)F)cn2)c1C(=O)Nc1ccc(OC2CCN(CCF)C2)nc1 (centres unmarked) [Example 295, N-(6-{[1-(2-fluoroethyl)pyrrolidin-3-yl]oxy}pyridin-3-yl)-3-methyl-5-{[5-(trifluoromethyl)pyrazin-2-yl]amino}-1,2-thiazole-4-carboxamide]	380	> 20000
Cc1nsc(Nc2cnc(C(F)(F)F)cn2)c1C(=O)Nc1ccc(OC2CCN(CC(F)F)C2)nc1 (centres unmarked) [Example 296, N-(6-{[1-(2,2-difluoroethyl)pyrrolidin-3-yl]oxy}pyridin-3-yl)-3-methyl-5-{[5-(trifluoromethyl)pyrazin-2-yl]amino}-1,2-thiazole-4-carboxamide]	600	> 20000
Cc1nsc(Nc2cnc(C(F)(F)F)cn2)c1C(=O)Nc1ccc(OC2CCN(CC(F)(F)F)C2)nc1 (centres unmarked) [Example 297, 3-methyl-N-(6-{[1-(2,2,2-trifluoroethyl)pyrrolidin-3-yl]oxy}pyridin-3-yl)-5-{[5-(trifluoromethyl)pyrazin-2-yl]amino}-1,2-thiazole-4-carboxamide]	350	> 20000
Cc1nsc(Nc2cnc(C(F)(F)F)cn2)c1C(=O)Nc1ccc(OC2CCN(CCC(F)(F)F)C2)nc1 (centres unmarked) [Example 298, 3-methyl-5-{[5-(trifluoromethyl)pyrazin-2-yl]amino}-N-(6-{[1-(3,3,3-trifluoropropyl)pyrrolidin-3-yl]oxy}pyridin-3-yl)-1,2-thiazole-4-carboxamide]	330	> 20000
Cc1nsc(Nc2cnc(C(F)(F)F)cn2)c1C(=O)Nc1ccc(N(C)C)c(OCCCN(C)CC(F)(F)F)c1 [Example 299, N-[4-(dimethylamino)-3-{3-[methyl(2,2,2-trifluoroethyl)amino]propoxy}phenyl]-3-methyl-5-{[5-(trifluoromethyl)pyrazin-2-yl]amino}-1,2-thiazole-4-carboxamide]	260	> 20000
Cc1nsc(Nc2cnc(C(F)(F)F)cn2)c1C(=O)Nc1ccc(N(C)C)c(OCCCN(C)CCC(F)(F)F)c1 [Example 300, N-[4-(dimethylamino)-3-{3-[methyl(3,3,3-trifluoropropyl)amino]propoxy}phenyl]-3-methyl-5-{[5-(trifluoromethyl)pyrazin-2-yl]amino}-1,2-thiazole-4-carboxamide]	550	> 20000
Cc1nsc(Nc2cnc(C(F)(F)F)cn2)c1C(=O)Nc1ccc(F)c(OCCCN(C)CC(F)F)c1 [Example 301, N-(3-{3-[(2,2-difluoroethyl)(methyl)amino]propoxy}-4-fluorophenyl)-3-methyl-5-{[5-(trifluoromethyl)pyrazin-2-yl]amino}-1,2-thiazole-4-carboxamide]	360	> 20000
Cc1nsc(Nc2cnc(C(F)(F)F)cn2)c1C(=O)Nc1ccc(F)c(OCCCN(C)CC(F)(F)F)c1 [Example 302, N-(4-fluoro-3-{3-[methyl(2,2,2-trifluoroethyl)amino]propoxy}phenyl)-3-methyl-5-{[5-(trifluoromethyl)pyrazin-2-yl]amino}-1,2-thiazole-4-carboxamide]	340	> 20000
Cc1nsc(Nc2cnc(C(F)(F)F)cn2)c1C(=O)Nc1ccc(F)c(OCCCN(C)CCC(F)(F)F)c1 [Example 303, N-(4-fluoro-3-{3-[methyl(3,3,3-trifluoropropyl)amino]propoxy}phenyl)-3-methyl-5-{[5-(trifluoromethyl)pyrazin-2-yl]amino}-1,2-thiazole-4-carboxamide]	400	≥ 20000
Cc1nsc(Nc2cncc(C(F)(F)F)n2)c1C(=O)Nc1ccc(OC2CCN(CCC(F)(F)F)CC2)nc1 [Example 304, 3-methyl-5-{[6-(trifluoromethyl)pyrazin-2-yl]amino}-N-(6-{[1-(3,3,3-trifluoropropyl)piperidin-4-yl]oxy}pyridin-3-yl)-1,2-thiazole-4-carboxamide]	360	> 20000
Cc1nsc(Nc2cnc(C(F)(F)F)cn2)c1C(=O)Nc1ccc(OCCNCC(F)F)nc1 [Example 305, N-(6-{2-[(2,2-difluoroethyl)amino]ethoxy}pyridin-3-yl)-3-methyl-5-{[5-(trifluoromethyl)pyrazin-2-yl]amino}-1,2-thiazole-4-carboxamide]	1100	19000
Cc1nsc(Nc2cnc(C(F)(F)F)cn2)c1C(=O)Nc1ccc(F)c(OCCCNCC(F)(F)F)c1 [Example 306, N-(4-fluoro-3-{3-[(2,2,2-trifluoroethyl)amino]propoxy}phenyl)-3-methyl-5-{[5-(trifluoromethyl)pyrazin-2-yl]amino}-1,2-thiazole-4-carboxamide]	570	≥ 20000
Cc1nsc(Nc2cnc(C(F)(F)F)cn2)c1C(=O)Nc1ccc(F)c(OCCCNCCC(F)(F)F)c1 [Example 307, N-(4-fluoro-3-{3-[(3,3,3-trifluoropropyl)amino]propoxy}phenyl)-3-methyl-5-{[5-(trifluoromethyl)pyrazin-2-yl]amino}-1,2-thiazole-4-carboxamide]	690	≥ 20000
Cc1nsc(Nc2cnc(C(F)(F)F)cn2)c1C(=O)Nc1ccc(F)c(OCC2CCN(CC(F)F)CC2)c1 [Example 308, N-(3-{[1-(2,2-difluoroethyl)piperidin-4-yl]methoxy}-4-fluorophenyl)-3-methyl-5-{[5-(trifluoromethyl)pyrazin-2-yl]amino}-1,2-thiazole-4-carboxamide]	340	≥ 20000
Cc1nsc(Nc2cnc(C(F)(F)F)cn2)c1C(=O)Nc1ccc(F)c(OCC2CCN(CCF)CC2)c1 [Example 309, N-(4-fluoro-3-{[1-(2-fluoroethyl)piperidin-4-yl]methoxy}phenyl)-3-methyl-5-{[5-(trifluoromethyl)pyrazin-2-yl]amino}-1,2-thiazole-4-carboxamide]	630	≥ 20000
Cc1nsc(Nc2cnc(C(F)(F)F)cn2)c1C(=O)Nc1ccc(F)c(OCC2CCN(CC(F)(F)F)CC2)c1 [Example 310, N-(4-fluoro-3-{[1-(2,2,2-trifluoroethyl)piperidin-4-yl]methoxy}phenyl)-3-methyl-5-{[5-(trifluoromethyl)pyrazin-2-yl]amino}-1,2-thiazole-4-carboxamide]	230	≥ 20000
Cc1nsc(Nc2cnc(C(F)(F)F)cn2)c1C(=O)Nc1ccc(F)c(OCC2CCN(CCC(F)(F)F)CC2)c1 [Example 311, N-(4-fluoro-3-{[1-(3,3,3-trifluoropropyl)piperidin-4-yl]methoxy}phenyl)-3-methyl-5-{[5-(trifluoromethyl)pyrazin-2-yl]amino}-1,2-thiazole-4-carboxamide]	330	> 20000
Cc1nsc(Nc2cnc(C(F)(F)F)cn2)c1C(=O)Nc1ccc(F)c(OCC2CCN(C(CF)CF)CC2)c1 [Example 312, N-(3-{[1-(1,3-difluoropropan-2-yl)piperidin-4-yl]methoxy}-4-fluorophenyl)-3-methyl-5-{[5-(trifluoromethyl)pyrazin-2-yl]amino}-1,2-thiazole-4-carboxamide]	420	≥ 20000
